# Results: US20160008297A1, “COMPOUNDS FOR PREVENTING, REDUCING AND/OR ALLEVIATING ITCHY SKIN CONDITION(S)” (B.R.A.I.N. Biotechnology Research And Information Network AG, priority 2012, published 2016)
# Molecular target: T1, PAR-2 (Homo sapiens, UniProt P55085)
# T1 construct: Human embryonic kidney 293 cells (HEK293) endogenously expressing PAR-2; endogenous in cells; host or cells: HEK293
# T1 sequence (P55085 26-397): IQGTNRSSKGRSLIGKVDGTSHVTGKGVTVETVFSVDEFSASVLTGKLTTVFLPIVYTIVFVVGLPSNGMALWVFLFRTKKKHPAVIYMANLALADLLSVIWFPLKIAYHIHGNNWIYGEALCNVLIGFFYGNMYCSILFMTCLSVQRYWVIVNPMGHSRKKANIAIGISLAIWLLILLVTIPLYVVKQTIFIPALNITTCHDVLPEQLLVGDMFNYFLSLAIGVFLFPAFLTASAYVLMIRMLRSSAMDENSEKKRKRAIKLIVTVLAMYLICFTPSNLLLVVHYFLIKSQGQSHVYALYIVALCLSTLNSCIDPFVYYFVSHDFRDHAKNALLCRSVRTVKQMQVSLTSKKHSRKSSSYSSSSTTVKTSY
# Assay: Cell-based calcium assay (Fluo-4 AM) for PAR-2 antagonists, SLIGRL-evoked signal
# Settings: in the presence of 2 μM SLIGRL, HEK293 cells; read-out: IC50 of PAR-2 antagonism (inhibition of SLIGRL induced PAR-2 activation)
# Procedure: Cell-based calcium assay for the identification of PAR-2 antagonists based on fluorescent dye Fluo4-AM
# Functional modulation of PAR-2 by the tested compounds was measured and quantified using the calcium sensitive fluorescent probe Fluo-4 AM on a fluorescence microplate reader. Activation of PAR-2 by an agonist (SLIGRL) led to an increase in the intracellular calcium concentration and thus an increase in fluorescence intensity.
# Human embryonic kidney 293 cells (HEK293) endogenously expressing PAR-2 were cultured in DMEM (high glucose) supplemented with tetracycline-free FCS (10% v/v), L-glutamine (4 mM), blasticidin (15 μg/ml), zeocin (100 μg/ml) and puromycin (2 μg/ml) in a water-saturated atmosphere at 37° C. and 5% CO2.
# Cells were seeded onto 96-well clear-bottom black-walled assay plates at a density of 45,000 cells per well in 100 μl of cell culture medium. Intracellular calcium increase in the living cells due to receptor activation was monitored 24 h later using the calcium sensitive fluorescent probe Fluo-4 AM on a fluorescence microplate reader (FlexStation® system, Molecular Devices). Therefore 100 μl Krebs-HEPES (KH) buffer (118 mM NaCl; 4.7 mM KCl; 1.3 mM CaCl2; 1.2 mM MgSO4; 1.2 mM KH2PO4; 4.2 mM NaHCO3; 10 mM Hepes, pH 7.4) supplemented with sulfinpyrazone (250 μM) and Fluo-4 AM (4 μM) were added and the cells were incubated for an additional hour in a water-saturated atmosphere at 37° C. and 5% CO2.
# Medium was replaced with 150 μl KH buffer supplemented with sulfinpyrazone (250 μM). Subsequently, 50 μl KH buffer supplemented with the screening compounds (final concentration of 10 μM under measurement conditions) or control substances were added and the cells were incubated for 10 min. under assay conditions in the microplate reader. Changes in fluorescence were recorded at 37° C. after addition of 50 μl KH buffer supplemented with the PAR-2 peptide agonist SLIGRL (final concentration of 2 μM under measurement conditions).
# Calcium mobilization was quantified as the change of peak fluorescence (ΔF) over the baseline level (F). The data was analyzed with the software of the microplate reader. Potential PAR-2 antagonists were tested in an effective range of 1-100 μM for their capacity to reduce the SLIGRL-evoked signal.
# A cellular in vitro assay was developed with human embryonic kidney 293 cells (HEK293) endogenously expressing PAR-2. The PAR-2 activating peptide SLIGRL (EC50: ˜0.6 μM) was used as an agonistic stimulus with subsequent Fluo-4 dependent intracellular calcium detection (calcium imaging).
row,IC50,Structure (SMILES)
1,25 to 100 µM,"COc1cc(/C=C/C(=O)CC(=O)/C=C/c2ccc(O)c(OC)c2)ccc1O [formula 8, 1,7-Bis-(4-hydroxy-3-methoxyphenyl)-hepta-1,6-dien-3,5-dione]"
2,25 to 100 µM,"COc1ccc(/C=C/C(=O)CC(=O)/C=C/c2ccc(OC)cc2)cc1 [formula 7, 1,7-Bis-(4-methoxyphenyl)-hepta-1,6-dien-3,5-dione]"
3,67.8 µM,"COc1ccc(CCC(=O)CC(=O)CCc2ccc(OC)cc2)cc1 [formula 3, 1,7-Bis-(4-methoxyphenyl)-3,5-heptanedione]"

row,Structure (SMILES),IC50
1,"COc1cc(CCC(=O)CC(=O)CCc2ccc(O)c(OC)c2)ccc1O [formula 4, 1,7-Bis-(4-hydroxy-3-methoxyphenyl)-3,5-heptanedione]",25 to 100 µM
